Experimental data published in the supplement of paper PMC10307832.

Legend:
Test in all cases: relative viability (nuclei count vs DMSO), 5 days (fraction); higher = more cells survive
NCI-H2087 = test system: NCI-H2087
Method in brief: (§1)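 Relative viability is defined as nuclei in treated wells over nuclei in vehicle wells. Duplicate plates were run and medians reported. Lung cancer cell lines in 1536-well plates were dosed by pin tool one day after seeding, with one drug or with a fixed anchor-drug dose plus five library-drug doses (not always all listed) in √10 steps, and nuclei were counted after 5 days.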

LOU-NH91 = test system: LOU-NH91
Method in brief: as §1

NCI-H727 = test system: NCI-H727
Method in brief: as §1

LCLC-97TM1 = test system: LCLC-97TM1
Method in brief: as §1

NCI-H1650 = test system: NCI-H1650
Method in brief: as §1

EKVX = test system: EKVX
Method in brief: as §1

NCI-H1792 = test system: NCI-H1792
Method in brief: as §1

LK-2 = test system: LK-2
Method in brief: as §1

NCI-H1563 = test system: NCI-H1563
Method in brief: as §1

HCC-827 = test system: HCC-827
Method in brief: as §1

LU99A = test system: LU99A
Method in brief: as §1

HCC-78 = test system: HCC-78
Method in brief: as §1

EPLC-272H = test system: EPLC-272H
Method in brief: as §1

BEN = test system: BEN
Method in brief: as §1

NCI-H358 = test system: NCI-H358
Method in brief: as §1

SW 1573 = test system: SW 1573
Method in brief: as §1

EMC-BAC-2 = test system: EMC-BAC-2
Method in brief: as §1

NCI-H2126 = test system: NCI-H2126
Method in brief: as §1

COR-L 105 = test system: COR-L 105
Method in brief: as §1

SK-MES-1 = test system: SK-MES-1
Method in brief: as §1

Compound: COCC1(CO)C(=O)C2CCN1CC2 (stereo unspecified) [PRIMA-1MET] + C[C@@H](Oc1cc(-c2cnn(C3CCNCC3)c2)cnc1N)c1c(Cl)ccc(F)c1Cl [Crizotinib] (partner 1 µM)
- relative viability (NCI-H2087; first compound 0.2 µM): 0.949
- relative viability (NCI-H2087; first compound 0.6325 µM): 0.751
- relative viability (NCI-H2087; first compound 2 µM): 0.474
- relative viability (NCI-H2087; first compound 6.325 µM): 0.794
- relative viability (NCI-H2087; first compound 20 µM): 0.805
- relative viability (LOU-NH91; first compound 0.2 µM): 0.788
- relative viability (LOU-NH91; first compound 0.6325 µM): 0.583
- relative viability (LOU-NH91; first compound 2 µM): 0.743
- relative viability (LOU-NH91; first compound 6.325 µM): 0.773
- relative viability (LOU-NH91; first compound 20 µM): 0.681
- relative viability (NCI-H727; first compound 0.2 µM): 0.841
- relative viability (NCI-H727; first compound 0.6325 µM): 0.873
- relative viability (NCI-H727; first compound 2 µM): 0.82
- relative viability (NCI-H727; first compound 6.325 µM): 0.715
- relative viability (NCI-H727; first compound 20 µM): 0.117
- relative viability (LCLC-97TM1; first compound 0.2 µM): 0.494
- relative viability (LCLC-97TM1; first compound 2 µM): 0.378
- relative viability (LCLC-97TM1; first compound 6.325 µM): 0.234
- relative viability (LCLC-97TM1; first compound 20 µM): 0.0997
- relative viability (NCI-H1650; first compound 0.2 µM): 1.22
- relative viability (NCI-H1650; first compound 0.6325 µM): 1.02
- relative viability (NCI-H1650; first compound 2 µM): 1
- relative viability (NCI-H1650; first compound 6.325 µM): 0.992
- relative viability (NCI-H1650; first compound 20 µM): 0.659
- relative viability (EKVX; first compound 0.2 µM): 1.11
- relative viability (EKVX; first compound 0.6325 µM): 0.893
- relative viability (EKVX; first compound 2 µM): 0.665
- relative viability (EKVX; first compound 6.325 µM): 0.997
- relative viability (EKVX; first compound 20 µM): 0.891
- relative viability (NCI-H1792; first compound 0.2 µM): 1.08
- relative viability (NCI-H1792; first compound 0.6325 µM): 0.884
- relative viability (NCI-H1792; first compound 2 µM): 1.1
- relative viability (NCI-H1792; first compound 6.325 µM): 0.991
- relative viability (NCI-H1792; first compound 20 µM): 0.971
- relative viability (LK-2; first compound 0.2 µM): 0.221
- relative viability (LK-2; first compound 0.6325 µM): 0.182
- relative viability (LK-2; first compound 2 µM): 0.22
- relative viability (LK-2; first compound 6.325 µM): 0.255
- relative viability (LK-2; first compound 20 µM): 0.18
- relative viability (NCI-H1563; first compound 0.2 µM): 0.887
- relative viability (NCI-H1563; first compound 0.6325 µM): 0.806
- relative viability (NCI-H1563; first compound 2 µM): 0.868
- relative viability (NCI-H1563; first compound 6.325 µM): 0.843
- relative viability (NCI-H1563; first compound 20 µM): 0.262
- relative viability (HCC-827; first compound 0.2 µM): 1.06
- relative viability (HCC-827; first compound 0.6325 µM): 0.813
- relative viability (HCC-827; first compound 2 µM): 0.796
- relative viability (HCC-827; first compound 6.325 µM): 0.978
- relative viability (HCC-827; first compound 20 µM): 0.896
- relative viability (LU99A; first compound 0.2 µM): 0.564
- relative viability (LU99A; first compound 0.6325 µM): 0.475
- relative viability (LU99A; first compound 2 µM): 0.576
- relative viability (LU99A; first compound 6.325 µM): 0.501
- relative viability (LU99A; first compound 20 µM): 0.0737
- relative viability (HCC-78; first compound 0.2 µM): 0.427
- relative viability (HCC-78; first compound 0.6325 µM): 0.34
- relative viability (HCC-78; first compound 6.325 µM): 0.353
- relative viability (HCC-78; first compound 20 µM): 0.0613
- relative viability (EPLC-272H; first compound 0.2 µM): 0.989
- relative viability (EPLC-272H; first compound 0.6325 µM): 0.867
- relative viability (EPLC-272H; first compound 2 µM): 0.816
- relative viability (EPLC-272H; first compound 6.325 µM): 0.851
- relative viability (EPLC-272H; first compound 20 µM): 0.262
- relative viability (BEN; first compound 0.2 µM): 0.973
- relative viability (BEN; first compound 0.6325 µM): 0.88
- relative viability (BEN; first compound 6.325 µM): 0.974
- relative viability (BEN; first compound 20 µM): 0.735
- relative viability (NCI-H358; first compound 0.2 µM): 0.688
- relative viability (NCI-H358; first compound 0.6325 µM): 0.59
- relative viability (NCI-H358; first compound 6.325 µM): 0.526
- relative viability (NCI-H358; first compound 20 µM): 0.152
- relative viability (SW 1573; first compound 0.2 µM): 0.935
- relative viability (SW 1573; first compound 0.6325 µM): 0.571
- relative viability (SW 1573; first compound 2 µM): 0.843
- relative viability (SW 1573; first compound 6.325 µM): 0.276
- relative viability (SW 1573; first compound 20 µM): 0.0264
- relative viability (EMC-BAC-2; first compound 0.2 µM): 0.837
- relative viability (EMC-BAC-2; first compound 0.6325 µM): 0.779
- relative viability (EMC-BAC-2; first compound 2 µM): 0.666
- relative viability (EMC-BAC-2; first compound 6.325 µM): 0.771
- relative viability (EMC-BAC-2; first compound 20 µM): 0.793
- relative viability (NCI-H2126; first compound 0.2 µM): 1.08
- relative viability (NCI-H2126; first compound 0.6325 µM): 1.02
- relative viability (NCI-H2126; first compound 2 µM): 0.957
- relative viability (NCI-H2126; first compound 6.325 µM): 1.04
- relative viability (NCI-H2126; first compound 20 µM): 1.04
- relative viability (COR-L 105; first compound 0.2 µM): 0.918
- relative viability (COR-L 105; first compound 0.6325 µM): 0.664
- relative viability (COR-L 105; first compound 2 µM): 0.74
- relative viability (COR-L 105; first compound 6.325 µM): 0.782
- relative viability (COR-L 105; first compound 20 µM): 0.254
- relative viability (SK-MES-1; first compound 0.2 µM): 1.09
- relative viability (SK-MES-1; first compound 0.6325 µM): 0.968
- relative viability (SK-MES-1; first compound 2 µM): 1.03
- relative viability (SK-MES-1; first compound 6.325 µM): 0.943
- relative viability (SK-MES-1; first compound 20 µM): 0.997
